Consider 14 compounds from paper PMC6792352, “Limited Chemical Structural Diversity Found to Modulate Thyroid Hormone Receptor in the Tox21 Chemical Library” (Environmental Health Perspectives, 2019).

Read-outs that look alike come from different tables or passages of the source.

Data set [1] can be described thus: in vitro. Also on record: species or system GH3-TRE-Luc (rat pituitary); CellTiter-Fluor viability run in parallel with antagonist mode (1 nM T3), loss of viability. The settings on record: rat, gh3-tre-luc cells, 1 nM T3 present.
For data set [2], the system named is thyroid hormone receptor (endogenous TRα and TRβ). Kind of data set: cells. Details: species or system GH3-TRE-Luc (rat pituitary); GH3-TRE-Luc luciferase reporter, antagonist mode against 1 nM T3, loss of signal, qHTS. The settings on record: 24 h, antagonist mode, 1 nM T3, read-out: AC50 (uM) modified / 1000.
Data set [3] shares this test system. Kind of data set: cells. Details: species or system GH3-TRE-Luc (rat pituitary); GH3-TRE-Luc luciferase reporter transactivation, agonist mode, qHTS; RXR ligands can also activate indirectly. The settings on record: 24 h, read-out: TR_LUC_GH3_Agonist_AC50 (uM).
The test system of data set [4] is thyroid hormone receptor (TR). Kind of data set: Classification of TR actives across characterization assays (TR-Ag / RXR-Ag; TR model binary). Details: key to Categorization Code: FP, false positive. The settings on record: for Categorization Code: TR agonist characterization. An outline of the steps: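 GH3-TRE qHTS agonist, antagonist and viability modes over 8,305 compounds; 84 candidates rescreened in GH3-TRE-Ag, TRβ- and RXRα-UAS-bla HEK 293T one-hybrid assays, HEK293T viability, and TRα/TRβ coactivator recruitment. Actives classified binary after removing pharmaceuticals.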

Data set [5] is described as follows: in vitro. The settings on record: rat, gh3-tre-luc cells, AC50 (uM) modified / 1000.
A short description of data set [6]: in vitro. The settings on record: rat.
The nature of data set [7]: Global cytotoxicity: eighteen Tox21 cell viability assays. Format: cell-based. The settings on record: median over 18 Tox21 cell viability assays (Judson et al. 2016, invitrodb_v2); read-out: Global cytotoxicity AC50 median.
The test system of data set [8] is thyroid hormone receptor (endogenous TRα and TRβ). Kind of data set: GH3-TRE-Ag-Followup confirmation (TOX21_TR_LUC_GH3_Agonist_Followup, aeid 2226). Format: cell-based, rat. The settings on record: for AC50: read-out: GH3-TRE-Ag-Followup AC50; for GH3-TRE-Ag-Followup hitc: hit call from tcpl.
For data set [9], the system named is GH3-TRE-Luc cell line. Kind of data set: GH3-TRE-Via cell viability, CellTiter-Fluor (TOX21_TR_LUC_GH3_Antagonist_viability, aeid 805). The settings on record: for AC50: Rattus norvegicus, read-out: TR_LUC_GH3_Antagonist_viability AC50 (uM).
For data set [10], the system named is thyroid hormone receptor (endogenous TRα and TRβ). Kind of data set: GH3-TRE-Ag primary qHTS, luciferase reporter, agonist mode (TOX21_TR_LUC_GH3_Agonist, aeid 803). It counts as cell-based, rat. The settings on record: for GH3-TRE-Ag AC50 hitc: hit call from tcpl.
For data set [11], the target named is T1, TRα ligand-binding domain (Homo sapiens, UniProt P10827).
T1 construct: the receptor LBDs expressed as glutathione S-transferase (GST) fusion proteins; purchased
T1 sequence (P10827 163-410 isoform P10827-2 limits assumed, other chains not shown): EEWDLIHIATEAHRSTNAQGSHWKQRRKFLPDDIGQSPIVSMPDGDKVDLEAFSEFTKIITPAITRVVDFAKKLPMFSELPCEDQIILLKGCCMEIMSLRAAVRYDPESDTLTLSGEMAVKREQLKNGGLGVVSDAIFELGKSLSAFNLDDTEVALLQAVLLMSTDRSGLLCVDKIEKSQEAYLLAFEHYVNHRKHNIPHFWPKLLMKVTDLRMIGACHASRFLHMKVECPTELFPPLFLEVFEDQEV
Kind of data set: TRa-coa LanthaScreen TR-FRET coactivator (SRC-2 peptide) recruitment, agonist (TOX21_TRA_COA_Agonist_Followup_ratio, aeid 2230). The settings on record: for AC50 / TRa-coa hitc: agonist; for AC50: read-out: TRa-coa AC50; for TRa-coa hitc: hit call from tcpl; for Emax: read-out: EMax (% of Control) tra-coa-agonist-followup-1. Format: biochemical.

The subject of data set [12] is Tox21 cell viability assays (different cell types). Kind of data set: Global cytotoxicity: eighteen Tox21 cell viability assays. It counts as cell-based.
The target in data set [13] is T2, human TRβ ligand-binding domain (Homo sapiens, UniProt P10828).
T2 sequence (P10828 217-461 limits assumed): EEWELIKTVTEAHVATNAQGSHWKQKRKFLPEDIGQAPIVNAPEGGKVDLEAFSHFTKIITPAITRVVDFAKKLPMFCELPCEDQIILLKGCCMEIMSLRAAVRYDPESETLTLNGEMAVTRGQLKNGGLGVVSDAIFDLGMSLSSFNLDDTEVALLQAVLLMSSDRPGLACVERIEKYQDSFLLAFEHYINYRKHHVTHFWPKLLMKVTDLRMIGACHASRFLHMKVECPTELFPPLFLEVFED
Kind of data set: TRb-coa LanthaScreen TR-FRET coactivator (SRC-2 peptide) recruitment, agonist (TOX21_TRB_COA_Agonist_Followup_ratio, aeid 2244). Format: biochemical. Also on record: host or cells: GeneBLAzer UAS-bla HEK 293T. The settings on record: for AC50 / TRb-coa hitc: agonist; for AC50: read-out: TRb-coa AC50; for TRb-coa hitc: hit call from tcpl; for Emax: read-out: EMax (% of Control) trb-coa-agonist-followup-1.

The target of data set [14] is T2, human TRβ ligand-binding domain. Kind of data set: TRb-bla agonist mammalian one-hybrid beta-lactamase assay (TOX21_TRB_BLA_Agonist_Followup_ratio, aeid 2236). It counts as cell-based. Also on record: host or cells: GeneBLAzer UAS-bla HEK 293T. The settings on record: for AC50 / TRb-bla hitc: agonist; for AC50: read-out: TRb-bla AC50; for TRb-bla hitc: hit call from tcpl; for Emax: read-out: EMax (% of Control) trb-bla-agonist-followup-1.

The target of data set [15] is T3, human RXRα (Homo sapiens, UniProt P19793).
T3 construct: host or cells: GeneBLAzer UAS-bla HEK 293T
T3 sequence (P19793 227-458 limits assumed): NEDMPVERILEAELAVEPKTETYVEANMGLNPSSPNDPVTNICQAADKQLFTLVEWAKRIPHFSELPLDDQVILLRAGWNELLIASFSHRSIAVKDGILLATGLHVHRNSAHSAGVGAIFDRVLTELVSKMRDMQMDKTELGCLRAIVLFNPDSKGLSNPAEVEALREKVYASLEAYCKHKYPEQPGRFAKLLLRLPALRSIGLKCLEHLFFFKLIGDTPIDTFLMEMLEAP
Kind of data set: RXRa-bla-Ag mammalian one-hybrid beta-lactamase assay (TOX21_TR_RXR_BLA_Agonist_Followup_ratio, aeid 2253). It counts as cell-based. The settings on record: for tr-followup-rxr-bla-agonist-1 hitc: hit call from tcpl; for Emax: read-out: EMax (% of Control) tr-followup-rxr-bla-agonist-1; for AC50: read-out: tr-followup-rxr-bla-agonist-1 AC50.

In data set [16] the test system is GH3-TRE-Luc cell line. The settings on record: rat, 24 h.

In turn, `C1=CCC=C1` [1,3-Cyclopentadiene] gave a CC50 at 24 h in data set [1] (AC50 (uM) modified / 1000, Tox21_110001=Tox21_302134, viability) of more than 90 µM. For the same compound, the AC50 in data set [2] (Tox21_110001=Tox21_302134) and in data set [3] was more than 90 µM in each case.

For `N[C@@H](Cc1ccc(Oc2cc(I)c(O)c(I)c2)c(I)c1)C(=O)O` [3,3ʹ,5ʹ-Triiodo-L-thyronine], the Classification result in [4] (TR-Ag = TR agonist, RXR-Ag = RXR agonist) was “TR-Ag”. The CC50 at 24 h in data set [5] is more than 50 µM. Besides, the AC50 is more than 92 µM in [6]; more than 92 µM in [7]; 0.218 µM in data set [3]; 0.537 µM in [8] (confirmation, agonist mode).

Take `ClCc1ccccc1` [Benzyl chloride]: the CC50 at 24 h in [1] (AC50 (uM) modified / 1000, Tox21_110001=Tox21_200266, viability) is more than 90 µM. Moreover, the AC50 in [2] (Tox21_110001=Tox21_200266) and in data set [3] was more than 90 µM in each case.

The compound `CCOP(=S)(OCC)SCCl` [Chlormephos] yielded a CC50 at 24 h in data set [1] (AC50 (uM) modified / 1000, Tox21_110001=Tox21_300825, viability) of more than 90 µM. The AC50 in data set [2] (Tox21_110001=Tox21_300825) and in [3] was more than 90 µM throughout.

Take `CCOP(=O)(OCC)Oc1nc(Cl)c(Cl)cc1Cl` [Chlorpyrifos oxon]: the CC50 at 24 h in data set [1] (AC50 (uM) modified / 1000, Tox21_110001=Tox21_301063, viability) stood at 60.1 µM. In addition, the AC50 in data set [3] was more than 90 µM.

The compound `CCS(=O)(=O)CCSP(=O)(OC)OC` [Demeton-S-methylsulphon] yielded a CC50 at 24 h in data set [1] (AC50 (uM) modified / 1000, Tox21_110001=Tox21_301575, viability) of more than 90 µM. Further, the AC50 in data set [2] (Tox21_110001=Tox21_301575) and in [3] was more than 90 µM each time.

For the compound `CCOP(=O)(CN(CCO)CCO)OCC` [Diethyl((diethanolamino)methyl)phosphonate], the CC50 at 24 h in data set [1] (AC50 (uM) modified / 1000, Tox21_110001=Tox21_301894, viability) was more than 90 µM. The AC50 in [2] (Tox21_110001=Tox21_301894) and in [3] was more than 90 µM in each case.

In [1] (AC50 (uM) modified / 1000, Tox21_110001=Tox21_201249, viability), `[CH3][Sn]([CH3])([Cl])[Cl]` [Dimethyltin dichloride] showed a CC50 at 24 h of 79.3 µM.

With `CCOP(=S)(Oc1ccc([N+](=O)[O-])cc1)c1ccccc1` (stereo not drawn) [EPN], the 50% cytotoxic concentration (CC50) at 24 h in data set [1] (AC50 (uM) modified / 1000, Tox21_110001=Tox21_300424, viability) is more than 90 µM. The AC50 in data set [2] (Tox21_110001=Tox21_300424) and in [3] was more than 90 µM each time.

Consider `C[C@]12CC[C@@H]3c4ccc(OC(=O)N(CCCl)CCCl)cc4CC[C@H]3[C@@H]1CC[C@@H]2OP(=O)(O)O` [Estramustine phosphate sodium], for which the AC50 in [2] (Tox21_110001=Tox21_113375) was more than 50 µM.

In the case of `CCOP(=S)(OCC)SCSc1cc(Cl)ccc1Cl` [Phenkapton], in [1] (AC50 (uM) modified / 1000, Tox21_110001=Tox21_301741, viability), the CC50 at 24 h was more than 90 µM. The AC50 in data set [2] (Tox21_110001=Tox21_301741) and in data set [3] was more than 90 µM in each case.

With `CNC(=O)ON=C(CSC)C(C)(C)C` [Thiofanox], the “Categorization Code” value in [4] was “FP”. For the same compound, the AC50 in [9] was more than 92 µM. For the same compound, the TR_LUC_GH3_Antagonist_viability hitc in [9] (hit call from tcpl) was 0. Further, in data set [10], the “EMax (% of Control) gh3-tre-agonist” value was 22.7 % of Control and the “GH3-TRE-Ag AC50 hitc” value was found to be 1. Moreover, in data set [11], the AC50 is more than 92 µM, the TRa-coa hitc was found to be 0 and the Emax was -0.2%. Moreover, the “GLOBAL CYTOTOXICITY cytotox.number_Active” value in data set [12] (# active of 18 total Tox21 viability assays) is reported as 0. Besides, the “GLOBAL CYTOTOXICITY cytotox.median” value in data set [12] (median over Tox21 viability assays) is listed as more than 92. Besides, in data set [13], the AC50 is more than 92 µM, the TRb-coa hitc is reported as 0 and the Emax was -0.165%. Moreover, the AC50 in [3] was found to be 21 µM. Also, in data set [14], the AC50 was more than 92 µM, the TRb-bla hitc worked out at 0 and the Emax came out at 31.7%. Also, in data set [8], the “EMax (% of Control) gh3-tre-agonist-followup-1_agonist” value is on record as 9.5 % of Control, the GH3-TRE-Ag-Followup hitc came to 0 and the AC50 was more than 92 µM. Moreover, in data set [15], the tr-followup-rxr-bla-agonist-1 hitc came to 0, the Emax was 3% and the AC50 is more than 92 µM.

In data set [1] (AC50 (uM) modified / 1000, Tox21_110001=Tox21_202322, viability), `[CH3][Sn]([Cl])([Cl])[Cl]` [Trichloromethylstannane] displayed a 50% cytotoxic concentration (CC50) at 24 h of more than 90 µM.

For the compound `c1csc(-c2ccc(-c3cccs3)s2)c1` [alpha-Terthiophene], in data set [4], the “Categorization Code” value was “FP”. Besides, in data set [9], the AC50 was more than 92 µM. In addition, in [10], the “EMax (% of Control) gh3-tre-agonist” value was 20.8 % of Control and the “GH3-TRE-Ag AC50 hitc” value was determined as 1. Moreover, in data set [11], the AC50 is more than 92 µM, the TRa-coa hitc is on record as 0 and the Emax was -0.547%. Further, in data set [12], the “GLOBAL CYTOTOXICITY cytotox.median” value is given as more than 92 and the “GLOBAL CYTOTOXICITY cytotox.number_Active” value is recorded as 0. Further, in [13], the AC50 is more than 92 µM, the TRb-coa hitc was 0 and the Emax was -0.0945%. The AC50 in data set [3] stood at 80.3 µM. In data set [14], the AC50 was more than 92 µM, the TRb-bla hitc was found to be 0 and the Emax worked out at 25.8%. In data set [16], this compound gave a TR_LUC_GH3_Antagonist_viability hitc of 0. In data set [8], the “EMax (% of Control) gh3-tre-agonist-followup-1_agonist” value was 7.5 % of Control, the GH3-TRE-Ag-Followup hitc is listed as 0 and the AC50 was more than 92 µM. For the same compound, in data set [15], the tr-followup-rxr-bla-agonist-1 hitc is reported as 1, the Emax stood at 65.3% and the AC50 is 0.728 µM.
